Literature values as cited in patent US20040092565A1, “Composition and method of sustaining chemotherapeutic effect while reducing dose of chemotherapeutic agent using cox-2 inhibitor and statin” (priority 2001, published 2004).
Where two headings read alike, the source gives them in different places. Values belong to the compound of their own block, whether it stands above or below them.

Columns and labels:
prostate cancer specimen = settings: mice, in vivo
[1] = test system: cisplatin-induced side effects; settings: 5 g of glutathione immediately before cisplatin
[2] = test system: Prostate Cancer Cell Line LNCaP; settings: literature reports on LNCaP and human prostate carcinoma cells
[3] = package insert

SMILES: CS(=O)(=O)Nc1ccc([N+](=O)[O-])cc1OC1CCCCC1 [NS398]
angiogenesis of prostate cancer specimen (prostate cancer specimen): inhibit angiogenesis

SMILES: N[C@@H](CCC(=O)N[C@@H](CS)C(=O)NCC(=O)O)C(=O)O [glutathione, gamma-Glu-Cys-Gly]
intensity of hematologic toxicity ([1]; compared with control group): significantly less pronounced
overall survival ([1]; vs. 10.5 months in the other group, no statistical difference): 13.5 months

SMILES: CC[C@H](C)C(=O)O[C@H]1C[C@@H](C)C=C2C=C[C@H](C)[C@H](CC[C@@H]3C[C@@H](O)CC(=O)O3)[C@H]21 [lovastatin]
therapeutic value in prostate cancer [2]: had therapeutic value in treating prostate cancer

time to maximum plasma concentration ([3]; for some persons): 2 to 9 h
time to maximum plasma concentration ([3]; on average): 2 to 3 h
SMILES: CS(=O)(=O)c1ccc(C2=C(c3ccccc3)C(=O)OC2)cc1 [rofecoxib]
